#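 1) Cells in 96-well plates. 2) Compound, 48 h, 5 concentrations. 3) Linear interpolation between surrounding doses. 4) Unreached endpoint = highest concentration. GI50 marks 50% less growth. TGI denotes the concentration required for complete inhibition of growth.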
# Assays:
# Assay in all cases: inhibition of tumour cell growth, NCI panel, 48 h
# [1] = test system: HCC-2998 colon
# [2] = test system: HOP-92 NSCLC
# [3] = test system: HS 578T breast
# [4] = test system: KM12 colon
# [5] = test system: LOX IMVI melanoma
# [6] = test system: RPMI-8226 leukemia
# [7] = test system: SF-295 CNS
# [8] = test system: SK-OV-3 ovarian
# [9] = test system: TK-10 renal
# [10] = test system: UACC-257 melanoma
SMILES,TGI [1] [µM],TGI [2] [µM],TGI [3] [µM],TGI [4] [µM],TGI [5] [µM],TGI [6] [µM],TGI [7] [µM],TGI [8] [µM],TGI [9] [µM],TGI [10] [µM],GI50 [3] [µM],GI50 [1] [µM],GI50 [2] [µM],GI50 [4] [µM],GI50 [5] [µM],GI50 [6] [µM],GI50 [7] [µM],GI50 [8] [µM],GI50 [9] [µM],GI50 [10] [µM]
N#Cc1c(C#N)c(-c2ccco2)n(/N=C/c2ccco2)c1N,> 100,61.2,71.2,> 100,> 100,> 100,> 100,> 100,> 100,> 100,,,,,,,,,,
O=C(c1ccccc1)c1cc(-c2ccccc2)c(-c2ccccc2)[nH]c(=O)c1=O,60.6,> 100,> 100,> 100,> 100,60,> 100,> 100,> 100,> 100,,,,,,,,,,
CCO/C=N/C1=C(C#N)C(c2ccc(OC)c(OC)c2)c2c(-c3ccccc3)nn(-c3ccccc3)c2O1 (stereo not given),> 100,30,> 100,22.1,31,> 100,30.7,60.2,,> 100,,,,,,,,,,
CCOc1c(OC)cc(CNNc2nccs2)cc1OC,> 100,> 100,> 100,> 100,> 100,> 100,> 100,,> 100,> 100,,,,,,,,,,
CC1(C)CC(=O)C2=C(C1)OC1=C(CC(C)(C)CC1=O)C2c1ccccc1Cl (stereo not given),> 100,> 100,> 100,,> 100,> 100,> 100,> 100,,> 100,,,,,,,,,,
O=C1N[C@@H](c2c[nH]c3ccc(Br)cc23)C(=O)N[C@H]1c1c[nH]c2ccc(Br)cc12,11.8,15.5,34.3,18.6,20.9,38.2,25.2,31.1,21.7,26.8,,,,,,,,,,
CC1=C2CC3=C(C)C(=O)O[C@H]3C[C@@H](C)[C@@H]2CC1,> 100,> 100,> 100,> 100,> 100,> 100,> 100,> 100,> 100,> 100,,,,,,,,,,
CC(=O)CC(=O)Nn1c(-c2cccs2)nc2ccc(I)cc2c1=O,> 67.4,> 100,71.3,> 100,> 90,> 100,> 100,> 100,> 100,> 100,18.9,,,,,,,,,
O=C1c2c(ccc3c2CCCC3)CC12Cc1ccccc1C2,> 74.8,51.7,> 100,59.9,29.4,45.5,> 100,> 100,> 100,54,,,,,,,,,,
COc1c(-c2ccc3c(c2)OCO3)oc2cc3c(c(OC)c2c1=O)OCO3,87.4,79.6,93.9,65.1,32.1,,61.8,35.7,80.4,> 100,,,,,,,,,,
CC(C)(C)C(=O)C(C#N)C(=O)C(C)(C)C,> 100,> 100,> 100,> 100,> 100,> 100,> 100,> 100,> 100,> 100,,,,,,,,,,
CN(C)CCCn1c2c(c3ccncc3c1=O)C(=O)c1ccccc1-2,5.31,2.39,14.3,11.5,4.95,7.62,10.3,65,24.3,5.22,1.74,1.38,0.155,0.641,0.36,1.72,1.06,12.1,1.98,1.68
CN1CCN(c2nc3c(c(=O)n(C)c(=O)n3C)n2C)CC1,> 100,> 100,> 100,> 100,> 100,> 100,> 100,> 100,> 100,> 100,,,,,,,,,,
COC(=O)c1cc(CNCCc2c[nH]c3ccccc23)on1,> 100,> 100,> 100,> 100,> 100,> 100,> 100,> 100,> 100,> 100,,,,,,,,,,
O=c1n(CCO)nc2n1CCCN2,> 100,> 100,> 100,> 100,> 100,> 100,> 100,> 100,> 100,,,,,,,,,,,

# Reference: PubChem BioAssay (NCI)
